The assay has as its target PI3K (Homo sapiens, UniProt P42336). Put plainly: Fluorescence polarization assay for PI3K.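 Also: PI3K kinase reaction on PIP2 with ATP, 30-60 min, product sensed by GST-GRP with red probe in fluorescence polarization (mP), controls without enzyme and at zero time.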 The format is biochemical. The following applies: PI3Kα; read-out: PI3Kα IC50.

The structures appear in SMILES notation.

Usually IC50 stands for the concentration that inhibits the measured activity by half.

PI3K, sequence (P42336 whole entry): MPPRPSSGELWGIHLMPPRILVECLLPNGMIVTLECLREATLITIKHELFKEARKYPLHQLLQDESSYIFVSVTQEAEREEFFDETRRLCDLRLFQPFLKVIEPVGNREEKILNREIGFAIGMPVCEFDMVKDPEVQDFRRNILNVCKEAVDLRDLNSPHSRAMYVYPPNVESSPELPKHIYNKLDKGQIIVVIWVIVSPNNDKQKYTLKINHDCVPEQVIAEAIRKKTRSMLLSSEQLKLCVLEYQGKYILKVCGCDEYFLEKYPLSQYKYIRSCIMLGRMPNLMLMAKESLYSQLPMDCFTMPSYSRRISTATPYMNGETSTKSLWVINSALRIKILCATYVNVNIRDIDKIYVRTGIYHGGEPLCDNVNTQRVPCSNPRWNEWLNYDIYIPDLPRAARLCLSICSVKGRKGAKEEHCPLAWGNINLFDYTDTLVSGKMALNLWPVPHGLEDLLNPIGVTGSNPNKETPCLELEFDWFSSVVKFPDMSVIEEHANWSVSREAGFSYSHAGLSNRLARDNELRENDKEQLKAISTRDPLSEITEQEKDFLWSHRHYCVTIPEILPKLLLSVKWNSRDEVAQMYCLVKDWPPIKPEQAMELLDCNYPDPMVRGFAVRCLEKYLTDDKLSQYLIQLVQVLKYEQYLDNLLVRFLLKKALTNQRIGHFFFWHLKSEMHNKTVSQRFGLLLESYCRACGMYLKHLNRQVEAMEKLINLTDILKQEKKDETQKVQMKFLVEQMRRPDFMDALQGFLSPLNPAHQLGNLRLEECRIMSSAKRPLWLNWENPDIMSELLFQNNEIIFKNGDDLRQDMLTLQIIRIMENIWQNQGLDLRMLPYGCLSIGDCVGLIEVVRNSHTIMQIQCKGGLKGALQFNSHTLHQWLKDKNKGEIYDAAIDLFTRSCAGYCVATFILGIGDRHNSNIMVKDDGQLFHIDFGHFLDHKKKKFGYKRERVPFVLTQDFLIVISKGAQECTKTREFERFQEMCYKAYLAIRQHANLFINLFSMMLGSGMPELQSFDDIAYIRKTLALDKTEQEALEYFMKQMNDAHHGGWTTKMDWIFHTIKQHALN
PI3K, sequence (P27986 whole entry partner): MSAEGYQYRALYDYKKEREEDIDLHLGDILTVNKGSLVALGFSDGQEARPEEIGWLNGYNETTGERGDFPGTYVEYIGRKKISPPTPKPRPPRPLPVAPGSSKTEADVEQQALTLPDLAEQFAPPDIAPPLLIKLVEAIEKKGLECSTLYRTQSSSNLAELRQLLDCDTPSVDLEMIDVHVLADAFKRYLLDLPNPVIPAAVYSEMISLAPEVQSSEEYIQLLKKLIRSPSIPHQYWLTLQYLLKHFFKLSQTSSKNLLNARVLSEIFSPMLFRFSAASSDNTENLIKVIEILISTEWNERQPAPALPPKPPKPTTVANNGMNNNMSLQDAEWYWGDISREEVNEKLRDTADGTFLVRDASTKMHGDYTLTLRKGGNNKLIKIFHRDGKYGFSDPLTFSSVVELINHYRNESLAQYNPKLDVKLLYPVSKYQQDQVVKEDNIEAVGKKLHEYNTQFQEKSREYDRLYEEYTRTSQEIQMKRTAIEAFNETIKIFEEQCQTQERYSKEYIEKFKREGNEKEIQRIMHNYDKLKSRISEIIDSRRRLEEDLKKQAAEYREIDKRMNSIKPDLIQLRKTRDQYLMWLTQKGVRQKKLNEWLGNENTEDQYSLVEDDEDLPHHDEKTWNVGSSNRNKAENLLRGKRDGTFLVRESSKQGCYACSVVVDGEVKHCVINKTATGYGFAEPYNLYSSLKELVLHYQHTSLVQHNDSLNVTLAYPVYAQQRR

Consider `COC(=O)Nc1ccc(-c2nc(N3CCOCC3)c3cnn(C4CCN(Cc5cccnc5OC)CC4)c3n2)cc1` [Compound 696, methyl [4-(1-{1-[(2-methoxypyridin-3-yl)methyl]piperidin-4-yl}-4-morpholin-4-yl-1H-pyrazolo[3,4-d]pyrimidin-6-yl)phenyl]carbamate], for which the IC50 is 1.83 µM.

`CCNC(=O)Nc1ccc(-c2nc(N3CCOCC3)c3cnn(C4CCN(Cc5cccnc5)CC4)c3n2)cc1F` [Example 372, 1-ethyl-3-(2-fluoro-4-{4-morpholin-4-yl-1-[1-(pyridin-3-ylmethyl)piperidin-4-yl]-1H-pyrazolo[3,4-d]pyrimidin-6-yl}phenyl)urea]: the concentration for half-maximal inhibition (IC50) turned out to be 0.424 µM.

With `CNC(=O)Nc1ccc(-c2nc(N3CCOCC3)c3cnn(C4CCN(C(=O)c5ccncc5)CC4)c3n2)cc1` [Compound 661, 1-{4-[1-(1-isonicotinoylpiperidin-4-yl)-4-morpholin-4-yl-1H-pyrazolo[3,4-d]pyrimidin-6-yl]phenyl}-3-methylurea], the IC50 was 0.16 µM.

For `CC(=O)Nc1ccc(-c2nc(N3CCOCC3)c3cnn(C4CCN(Cc5cccnc5)CC4)c3n2)cc1` [Example 158, N-(4-{4-morpholin-4-yl-1-[1-(pyridin-3-ylmethyl)piperidin-4-yl]-1H-pyrazolo[3,4-d]pyrimidin-6-yl}phenyl)acetamide], the IC50 worked out at 0.404 µM.

For the molecule `Oc1cccc(-c2nc(N3CCSCC3)c3cnn(-c4ccccc4)c3n2)c1` [Compound 963, 3-(1-phenyl-4-thiomorpholin-4-yl-1H-pyrazolo[3,4-d]pyrimidin-6-yl)phenol], the half-maximal inhibitory concentration (IC50) turned out to be 1.62 µM.

As for `COC(=O)Nc1ccc(-c2nc(N3CCOCC3)c3cnn(C4CCN(CC(=O)c5ccccc5)CC4)c3n2)cc1` [Compound 701, methyl (4-{4-morpholin-4-yl-1-[1-(2-oxo-2-phenylethyl)piperidin-4-yl]-1H-pyrazolo[3,4-d]pyrimidin-6-yl}phenyl)carbamate], the half-inhibitory concentration (IC50) came to 0.585 µM.

Take `CN(C)CC=CC(=O)N1CCC(n2ncc3c(N4CCOCC4)nc(-c4ccc5[nH]ccc5c4)nc32)CC1` [Compound 957, 4-{4-[6-(1H-indol-5-yl)-4-morpholin-4-yl-1H-pyrazolo[3,4-d]pyrimidin-1-yl]piperidin-1-yl}-N,N-dimethyl-4-oxobut-2-en-1-amine]: the IC50 came to 0.48 µM.

For `O=C(Nc1ccc(-c2nc(N3CCOCC3)c3cnn(C4CCN(Cc5ccccc5)CC4)c3n2)cc1)C(F)(F)F` [Compound 299, N-{4-[1-(1-benzylpiperidin-4-yl)-4-morpholin-4-yl-1H-pyrazolo[3,4-d]pyrimidin-6-yl]phenyl}-2,2,2-trifluoroacetamide], the half-maximal inhibitory concentration (IC50) was determined as 1.9 µM.

As for `Nc1cc(F)c(-c2nc(N3CCOCC3)c3cnn(C4CCN(C(=O)c5cccnc5)CC4)c3n2)cc1F` [Compound 464, 2,5-difluoro-4-{4-morpholin-4-yl-1-[1-(pyridin-3-ylcarbonyl)piperidin-4-yl]-1H-pyrazolo[3,4-d]pyrimidin-6-yl}aniline], the 50% inhibitory concentration (IC50) stood at 3.62 µM.

Regarding `CC(=O)Nc1ccc(-c2nc(N3CCOCC3)c3cnn(C4CCN(C(=O)c5cccnc5)CC4)c3n2)cc1` [Example 221, N-(4-{4-morpholin-4-yl-1-[1-(pyridin-3-ylcarbonyl)piperidin-4-yl]-1H-pyrazolo[3,4-d]pyrimidin-6-yl}phenyl)acetamide], the IC50 is 0.878 µM.

Turning to `COC(=O)Nc1ccc(-c2nc(N3CCOCC3)c3cnn(C4CCN(C(=O)c5ccccc5OC)CC4)c3n2)cc1` [Compound 690, methyl (4-{1-[1-(2-methoxybenzoyl)piperidin-4-yl]-4-morpholin-4-yl-1H-pyrazolo[3,4-d]pyrimidin-6-yl}phenyl)carbamate], the concentration for half-maximal inhibition (IC50) came to 0.888 µM.

For `COC(=O)Nc1ccc(-c2nc(N3CCOCC3)c3cnn(C4CCNCC4)c3n2)cc1` [Compound 703, methyl [4-(4-morpholin-4-yl-1-piperidin-4-yl-1H-pyrazolo[3,4-d]pyrimidin-6-yl)phenyl]carbamate], the IC50 was determined as 1.07 µM.

Consider `Nc1ccc(-c2nc(N3CCOCC3)c3cnn(C4CCN(C(=O)c5cccnc5)CC4)c3n2)c(F)c1` [Compound 704, 3-fluoro-4-{4-morpholin-4-yl-1-[1-(pyridin-3-ylcarbonyl)piperidin-4-yl]-1H-pyrazolo[3,4-d]pyrimidin-6-yl}aniline], for which the concentration for half-maximal inhibition (IC50) is 4.03 µM.

For `CC(=O)Nc1ccc(-c2nc(N3CCOCC3)c3cnn(C4CCCCO4)c3n2)cc1` (centres unmarked) [Compound 224, N-{4-[4-morpholin-4-yl-1-(tetrahydro-2H-pyran-2-yl)-1H-pyrazolo[3,4-d]pyrimidin-6-yl]phenyl}acetamide], the concentration for half-maximal inhibition (IC50) is 1.65 µM.

With `O=C(NCCF)Nc1cc(F)c(-c2nc(N3CCOCC3)c3cnn(C4CCN(C(=O)c5cccnc5)CC4)c3n2)cc1F` [Compound 711, 1-(2,5-difluoro-4-{4-morpholin-4-yl-1-[1-(pyridin-3-ylcarbonyl)piperidin-4-yl]-1H-pyrazolo[3,4-d]pyrimidin-6-yl}phenyl)-3-(2-fluoroethyl)urea], the half-inhibitory concentration (IC50) was found to be 2.98 µM.

Consider `CNC(=O)Nc1ccc(-c2nc(N3CCOCC3)c3cnn(C4CCN(C(=O)COC)CC4)c3n2)cc1` [Compound 718, 1-(4-{1-[1-(methoxyacetyl)piperidin-4-yl]-4-morpholin-4-yl-1H-pyrazolo[3,4-d]pyrimidin-6-yl}phenyl)-3-methylurea], for which the half-maximal inhibitory concentration (IC50) was determined as 0.287 µM.

`CNC(=O)Nc1ccc(-c2nc(N3CCOCC3)c3cnn(C4CCN(C)CC4)c3n2)cc1` [Compound 646, 1-methyl-3-{4-[1-(1-methylpiperidin-4-yl)-4-morpholin-4-yl-1H-pyrazolo[3,4-d]pyrimidin-6-yl]phenyl}urea]: the IC50 was 0.211 µM.

For `Oc1cccc(-c2nc(N3CCOCC3)c3c(F)nn(-c4ccccc4)c3n2)c1` [Compound 964, 3-(3-fluoro-4-morpholin-4-yl-1-phenyl-1H-pyrazolo[3,4-d]pyrimidin-6-yl)phenol], the half-maximal inhibitory concentration (IC50) is 0.07 µM.

Consider `CN(C)CC(=O)Nc1ccc(-c2nc(N3CCOCC3)c3cn[nH]c3n2)cc1` [Compound 958, N2,N2-dimethyl-N-[4-(4-morpholin-4-yl-1H-pyrazolo[3,4-d]pyrimidin-6-yl)phenyl]glycinamide], for which the IC50 was 2.27 µM.

For the molecule `CNC(=O)Nc1ccc(-c2nc(N3CCOCC3)c3cnn(C4CCN(Cc5ccco5)CC4)c3n2)cc1` [Compound 647, 1-(4-{1-[1-(2-furylmethyl)piperidin-4-yl]-4-morpholin-4-yl-1H-pyrazolo[3,4-d]pyrimidin-6-yl}phenyl)-3-methylurea], the IC50 stood at 0.063 µM.

As to `N#CNC(=O)Nc1ccc(-c2nc(N3CCOCC3)c3cnn(C4CCN(Cc5cccnc5)CC4)c3n2)cc1` [Compound 653, N′-cyano-N-(4-{4-morpholin-4-yl-1-[1-(pyridin-3-ylmethyl)piperidin-4-yl]-1H-pyrazolo[3,4-d]pyrimidin-6-yl}phenyl)carbamimidic acid], the 50% inhibitory concentration (IC50) worked out at 0.363 µM.

`O=C(NCCO)Nc1ccc(-c2nc(N3CCOCC3)c3cnn(C4CCN(C(=O)c5ccccc5)CC4)c3n2)cc1` [Compound 630, 1-{4-[1-(1-benzoylpiperidin-4-yl)-4-morpholin-4-yl-1H-pyrazolo[3,4-d]pyrimidin-6-yl]phenyl}-3-(2-hydroxyethyl)urea]: the concentration for half-maximal inhibition (IC50) is 0.229 µM.

For `c1ccc(CN2CCC(n3ncc4c(N5CCOCC5)nc(-c5ccc6c(c5)OCO6)nc43)CC2)cc1` [Example 33], the half-inhibitory concentration (IC50) was 1.16 µM.

As for `COC(=O)Nc1ccc(-c2nc(N3CCOCC3)c3cnn(C4CCN(C(=O)c5cccnc5)CC4)c3n2)cc1` [Example 223, methyl (4-{4-morpholin-4-yl-1-[1-(pyridin-3-ylcarbonyl)piperidin-4-yl]-1H-pyrazolo[3,4-d]pyrimidin-6-yl}phenyl)carbamate], the IC50 is 0.514 µM.

Turning to `CNC(=O)Nc1ccc(-c2nc(N3CCOCC3)c3cnn(C4CCN(C(=O)c5ccncc5)CC4)c3n2)cc1` [Example 417, 1-{4-[1-(1-isonicotinoylpiperidin-4-yl)-4-morpholin-4-yl-1H-pyrazolo[3,4-d]pyrimidin-6-yl]phenyl}-3-methylurea], the concentration for half-maximal inhibition (IC50) was 0.16 µM.

Consider `CNC(=O)Nc1ccc(-c2nc(N3CCOCC3)c3cnn(C4CCN(Cc5ccncc5)CC4)c3n2)cc1` [Compound 670, 1-methyl-3-(4-{4-morpholin-4-yl-1-[1-(pyridin-4-ylmethyl)piperidin-4-yl]-1H-pyrazolo[3,4-d]pyrimidin-6-yl}phenyl)urea], for which the IC50 amounted to 0.112 µM.

Take `Nc1ccc(-c2nc(N3CCOCC3)c3cnn(C4CCCCO4)c3n2)cc1` (centres unmarked) [Compound 934, 4-[4-morpholin-4-yl-1-(tetrahydro-2H-pyran-2-yl)-1H-pyrazolo[3,4-d]pyrimidin-6-yl]aniline]: the half-maximal inhibitory concentration (IC50) stood at 4.92 µM.

With `CNC(=O)Nc1ccc(-c2nc(N3CCOCC3)c3cnn(C4CCN(C(=O)c5ccccc5F)CC4)c3n2)cc1` [Example 354, 1-(4-{1-[1-(2-fluorobenzoyl)piperidin-4-yl]-4-morpholin-4-yl-1H-pyrazolo[3,4-d]pyrimidin-6-yl}phenyl)-3-methylurea], the half-maximal inhibitory concentration (IC50) stood at 0.08 µM.

`C=CC(=O)N1CCC(n2ncc3c(N4CCOCC4)nc(-c4ccc(NC(=O)OC)cc4)nc32)CC1` [Compound 702, methyl {4-[1-(1-acryloylpiperidin-4-yl)-4-morpholin-4-yl-1H-pyrazolo[3,4-d]pyrimidin-6-yl]phenyl}carbamate]: the IC50 stood at 1.98 µM.

As to `CNC(=O)Nc1ccc(-c2nc(N3CCOCC3)c3cnn(C4CCN(Cc5cccc(OC)c5)CC4)c3n2)cc1` [Compound 645, 1-(4-{1-[1-(3-methoxybenzyl)piperidin-4-yl]-4-morpholin-4-yl-1H-pyrazolo[3,4-d]pyrimidin-6-yl}phenyl)-3-methylurea], the concentration for half-maximal inhibition (IC50) worked out at 0.043 µM.

Regarding `CNC(=O)Nc1ccc(-c2nc(N3CCOCC3)c3cnn(C4CCN(Cc5cccc(Cl)c5)CC4)c3n2)cc1` [Compound 640, 1-(4-{1-[1-(3-chlorobenzyl)piperidin-4-yl]-4-morpholin-4-yl-1H-pyrazolo[3,4-d]pyrimidin-6-yl}phenyl)-3-methylurea], the concentration for half-maximal inhibition (IC50) came to 0.042 µM.

Consider `Cn1ncc2c(N3CCOCC3)nc(-c3ccoc3)nc21` [Compound 3], for which the 50% inhibitory concentration (IC50) stood at 0.915 µM.

These data come from patent US20080234262A1 (Wyeth, priority 2007, published 2008).
